Measurements as given in patent US20190002399A1 (Nektar Therapeutics, priority 2007, published 2019).
Where two headings read alike, the source gives them in different places. Marks after values point to notes of the source that are not given here.

What was measured:
[1] = Log P determination of conjugates; type: physicochemical
[2] = test system: CB-1 male mice; test: Analgesic assay: acetic acid writhing test; type: in vivo
Description: An analgesic assay was used to determine whether a given compound can reduce and/or prevent visceral pain in mice.
The assay utilized CB-1 male mice (5-8 mice per group), each mouse being approximately 0.015-0.030 kg on the study day. Mice were treated according to standard protocols.
Mice were given a single “pretreatment” dose of a compound lacking covalent attachment of a water-soluble, non-peptidic oligomer, a corresponding conjugate comprising the compound covalently attached to a water-soluble, non-peptidic oligomer, or control solution (IV, SC, IP or orally) thirty minutes prior to the administration of the acetic acid solution. The animal was given an IP injection of an irritant (acetic acid) that induces “writhing” which may include: contractions of the abdomen, twisting and turning of the trunk, arching of the back and the extension of the hind limbs. […] After the injection the animals were returned to their cages and their behavior was observed. Contractions were counted between 0 and 20 minutes after the injection. The animals were used once. […]

[3] = molecular target: T1, human Na channels expressed in native cells (human atrial myocytes) (Homo sapiens, UniProt Q14524); test: Potency at sodium channels: whole-cell patch clamp of sodium current (INa) in isolated human atrial myocytes; type: cell-based
T1 construct: from tissue; host or cells: cardiomyocytes isolated from human atrial appendages
T1 sequence (Q14524 whole entry): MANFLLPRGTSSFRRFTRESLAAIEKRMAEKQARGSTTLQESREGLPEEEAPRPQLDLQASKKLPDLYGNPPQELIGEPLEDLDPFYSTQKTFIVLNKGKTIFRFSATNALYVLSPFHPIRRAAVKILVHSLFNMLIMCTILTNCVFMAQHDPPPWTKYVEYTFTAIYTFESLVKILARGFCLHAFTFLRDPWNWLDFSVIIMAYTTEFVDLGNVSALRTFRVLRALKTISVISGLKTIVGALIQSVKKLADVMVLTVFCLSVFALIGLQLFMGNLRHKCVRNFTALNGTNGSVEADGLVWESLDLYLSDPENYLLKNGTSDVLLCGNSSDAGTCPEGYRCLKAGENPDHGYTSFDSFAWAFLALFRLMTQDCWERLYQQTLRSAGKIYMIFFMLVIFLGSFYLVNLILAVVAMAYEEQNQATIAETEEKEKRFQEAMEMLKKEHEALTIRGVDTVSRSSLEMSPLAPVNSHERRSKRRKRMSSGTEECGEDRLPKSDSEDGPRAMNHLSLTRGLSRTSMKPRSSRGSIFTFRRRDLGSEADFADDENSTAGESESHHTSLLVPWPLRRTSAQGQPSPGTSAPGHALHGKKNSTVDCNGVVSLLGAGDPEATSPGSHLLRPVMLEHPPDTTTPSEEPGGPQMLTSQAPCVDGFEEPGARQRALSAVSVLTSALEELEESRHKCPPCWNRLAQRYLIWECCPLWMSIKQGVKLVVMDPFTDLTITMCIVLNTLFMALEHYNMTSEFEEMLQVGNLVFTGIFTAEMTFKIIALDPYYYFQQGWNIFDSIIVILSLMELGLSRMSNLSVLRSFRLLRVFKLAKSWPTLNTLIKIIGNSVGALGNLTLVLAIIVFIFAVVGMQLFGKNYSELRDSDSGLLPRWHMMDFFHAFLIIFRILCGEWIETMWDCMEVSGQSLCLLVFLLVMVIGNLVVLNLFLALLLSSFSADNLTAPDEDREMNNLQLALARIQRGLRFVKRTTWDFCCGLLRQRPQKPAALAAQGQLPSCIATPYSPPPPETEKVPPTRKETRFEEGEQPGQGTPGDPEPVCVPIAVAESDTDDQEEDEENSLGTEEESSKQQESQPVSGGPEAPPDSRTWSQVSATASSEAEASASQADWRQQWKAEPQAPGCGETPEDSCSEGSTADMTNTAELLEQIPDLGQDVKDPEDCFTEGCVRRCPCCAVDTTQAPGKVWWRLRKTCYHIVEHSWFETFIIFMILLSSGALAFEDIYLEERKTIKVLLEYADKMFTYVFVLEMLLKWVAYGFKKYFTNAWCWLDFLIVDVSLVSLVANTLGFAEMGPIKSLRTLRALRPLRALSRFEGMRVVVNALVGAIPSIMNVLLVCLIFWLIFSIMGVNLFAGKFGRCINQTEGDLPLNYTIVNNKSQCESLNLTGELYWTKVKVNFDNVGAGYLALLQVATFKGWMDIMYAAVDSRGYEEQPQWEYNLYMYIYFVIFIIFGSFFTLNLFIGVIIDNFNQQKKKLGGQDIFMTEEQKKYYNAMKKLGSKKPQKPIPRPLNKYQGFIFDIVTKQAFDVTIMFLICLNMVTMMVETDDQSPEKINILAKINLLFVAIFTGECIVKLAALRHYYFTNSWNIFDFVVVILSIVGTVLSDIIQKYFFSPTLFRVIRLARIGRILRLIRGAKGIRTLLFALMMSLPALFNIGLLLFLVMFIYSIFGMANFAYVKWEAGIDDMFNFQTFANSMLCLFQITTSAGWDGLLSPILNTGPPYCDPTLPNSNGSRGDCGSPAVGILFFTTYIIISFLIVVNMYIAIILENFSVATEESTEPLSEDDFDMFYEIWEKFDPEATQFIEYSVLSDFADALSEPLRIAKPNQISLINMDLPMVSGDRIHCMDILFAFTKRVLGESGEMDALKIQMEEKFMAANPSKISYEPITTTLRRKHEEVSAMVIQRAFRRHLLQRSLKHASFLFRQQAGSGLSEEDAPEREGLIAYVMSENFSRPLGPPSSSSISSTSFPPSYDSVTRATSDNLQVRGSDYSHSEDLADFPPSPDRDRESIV
Description: Experiments were performed at 23±1° C. Currents were measured using the whole-cell variant of the patch clamp method. An Axopatch 1-B amplifier (Axon Instruments, Foster City, Calif.) was used for whole-cell voltage clamping. […] Peak inward current was measured for INa. […] Creation of voltage clamp pulses and data acquisition were controlled by a PC running pClamp software (version 9.2, Axon Instruments). Test compounds were added in a cumulative manner. Data are presented as % reduction of current amplitude. […] Each cell served as its own control. Log-linear plots were created of the mean percent blockade ±SEM at the concentrations tested. Nonlinear curve fitting routine was utilized to fit a three-parameter Hill equation to the results using MicroCal Origin, version 6.0 software.

[4] = pKa determination of conjugates; type: physicochemical
[5] = 10 mg/kg, SC, 30 min before IP 0.5% acetic acid, counted 0-20 min
[6] = 10 mg/kg, SC, animals with writhes ≤ upper 95% confidence limit for morphine
[7] = 10 mg/kg, SC, responding animals/N
[8] = lidocaine series, IC50 at 0.1 Hz relative to lidocaine
[9] = lidocaine series, peak INa, human atrial myocytes, pacing 0.1 Hz, 23±1° C
[10] = mexiletine series, IC50 at 0.1 Hz relative to mexiletine

Compound	% Reduction in Writhing ([2]; 10 mg/kg, SC)	Mean (writhes) [2, 5]	# of Responders [2, 6]	Responding Fraction [2, 7]	Fold Change vs. Parent [3, 8]	logP ([1]; read-out: LogP)	Fold Change vs. Parent [3, 10]	IC50 ([3]; read-out: IC50 at 0.1 Hz) [µM]	pKa1 ([4]; Table 2, mexiletine conjugates)	other results
CCN(CCOCCOCCOCCOCCOCCOCCOC)CC(=O)Nc1c(C)cccc1C [mPEG7-Lidocaine, mPEG7-lidocaine]	40.5%	36.0	2	0.40	2	–	–	–	–	logP ([1]; Table 1, lidocaine conjugates): 1.37; IC50 [3, 9]: 236 µM; pKa ([4]; Table 1, lidocaine conjugates): 6.81
COCCOCCOCCOCCOCCOCCOCCNC(C)COc1c(C)cccc1C (stereo not drawn) [N-mPEG7-Mexiletine, N-mPEG7-mexiletine]	–	–	–	–	–	1.23	4	206	8.26	–
CCN(CCOCCOCCOCCOCCOCCOCCOCCOCCOC)CC(=O)Nc1c(C)cccc1C [mPEG9-Lidocaine, mPEG9-lidocaine]	–	–	–	–	2	0.82	–	173	–	pKa ([4]; read-out: pKa): 6.57
CCN(CCOCCOCCOC)CC(=O)Nc1c(C)cccc1C [mPEG3-Lidocaine, mPEG3-lidocaine]	–	–	–	–	7	1.55	–	706	–	pKa ([4]; read-out: pKa): 6.46
COCCOCCOCCOCCOCCNC(C)COc1c(C)cccc1C (stereo not drawn) [N-mPEG5-Mexiletine, N-mPEG5-mexiletine]	42.4%	29.0	2	0.40	–	4.51	–	–	8.27	pKa2 ([4]; Table 2, mexiletine conjugates): 7.86
COCCOCCOCCOCCOCCN(CCOCCOCCOCCOCCOC)C(C)COc1c(C)cccc1C (stereo not drawn) [N,N-Di-mPEG5-Mexiletine, N,N-di-mPEG5-mexiletine]	–	–	–	–	–	1.61	2	95.9	8.26	–
PEG5-di-lidocaine [mPEG5-Di-Lidocaine]	60.3* %	17.3	2	0.50*	1	–	–	–	–	# of Responders ([2]; 3 mg/kg, SC): 2; % Reduction in Writhing ([2]; 3 mg/kg, SC): 46.0%; Responding Fraction ([2]; 3 mg/kg, SC): 0.50; Mean (writhes) ([2]; 3 mg/kg, SC, 30 min before IP 0.5% acetic acid, counted 0-20 min): 23.5; IC50 [3, 9]: 83.3 µM
CCN(CCOCCOCCOCCOC)CC(=O)Nc1c(C)cccc1C [mPEG4-Lidocaine, mPEG4-lidocaine]	–	–	–	–	2	1.42	–	178	–	pKa ([4]; read-out: pKa): 6.46
COCCOCCOCCOCCOCCOCCOCCOCCNC(C)COc1c(C)cccc1C (stereo not drawn) [N-mPEG8-Mexiletine, N-mPEG8-mexiletine]	65.8%	17.2	3	0.60	–	1.79	2	90.5	8.79	–
CCN(CCOCCOCCOCCOCCOCCOCCOCCOC)CC(=O)Nc1c(C)cccc1C [mPEG8-Lidocaine, mPEG8-lidocaine]	37.2%	38.0	2	0.40	1	0.63	–	57.5	–	pKa ([4]; read-out: pKa): 6.43
COCCOCCOCCOCCOCCOCCOCCN(CCOCCOCCOCCOCCOCCOCCOC)C(C)COc1c(C)cccc1C (stereo not drawn) [N,N-Di-mPEG7-Mexiletine, N,N-di-mPEG7-mexiletine]	–	–	–	–	–	0.83	2	130	7.75	–
CCN(CCOCCOCCOCCOCCOCCOC)CC(=O)Nc1c(C)cccc1C [mPEG6-Lidocaine, mPEG6-lidocaine]	–	–	–	–	5	1.23	–	473	–	pKa ([4]; read-out: pKa): 6.46
CCNCCOCCOCCOCCOCCN(CC)CC(=O)Nc1c(C)cccc1C [EtNH-PEG5-Lidocaine, EtNH-PEG5-lidocaine]	–	–	–	–	1	–	–	99.3	–	–
Cc1cccc(C)c1OCC(C)NCCOCCOCCOCCNC(C)COc1c(C)cccc1C (stereo not drawn) [PEG4-Di-Mexiletine, PEG4-di-Mexiletine]	–	–	–	–	–	2.36	0.14	7.32	7.73	–
COCCOCCOCCNC(C)COc1c(C)cccc1C (stereo not drawn) [N-mPEG3-Mexiletine, N-mPEG3-mexiletine]	–	–	–	–	–	2.26	5	284	8.27	–
PEG6-di-lidocaine [mPEG6-Di-Lidocaine]	37.9%	27.0	3	0.60	2	–	–	–	–	IC50 [3, 9]: 236 µM
CCN(CCOCCOCCOCCOCCOC)CC(=O)Nc1c(C)cccc1C [mPEG5-Lidocaine, mPEG5-lidocaine]	–	–	–	–	1	–	–	–	–	logP ([1]; Table 1, lidocaine conjugates): 1.01; IC50 [3, 9]: 53.5 µM; pKa ([4]; Table 1, lidocaine conjugates): 6.46
CCN(CCOCCOCCOCCOCCOCCO)CC(=O)Nc1c(C)cccc1C [PEG6-Lidocaine, HO-PEG6-Lidocaine]	–	–	–	–	1	–	–	104	–	–
CCN(CC)CC(=O)Nc1c(C)cccc1C [Lidocaine, lidocaine, reference compound]	37.5%	36.3	2	0.50	–	–	–	–	–	–
CCN(CCOCCOCCOCCOCCO)CC(=O)Nc1c(C)cccc1C [PEG5-Lidocaine, HO-PEG5-Lidocaine]	–	–	–	–	3	–	–	330	–	–
COCCOCCOCCN(CCOCCOCCOC)C(C)COc1c(C)cccc1C (stereo not drawn) [N,N-Di-mPEG3-Mexiletine, N,N-di-mPEG3-mexiletine]	–	–	–	–	–	1.96	1	66.2	7.76	–
CN(C)C(=O)C(CCN1CCC(O)(c2ccc(Cl)cc2)CC1)(c1ccccc1)c1ccccc1 [Loperamide, reference compound]	–	–	–	–	–	–	–	–	–	# of Responders ([2]; 0.75 mg/kg, SC): 4; % Reduction in Writhing ([2]; 0.75 mg/kg, SC): 78.6%; Responding Fraction ([2]; 0.75 mg/kg, SC): 1.00; Mean (writhes) ([2]; 0.75 mg/kg, SC, 30 min before IP 0.5% acetic acid, counted 0-20 min): 9.0
CN1CC[C@]23c4c5ccc(O)c4O[C@H]2[C@@H](O)C=C[C@H]3[C@H]1C5 [Morphine, morphine, reference compound]	–	–	–	–	–	–	–	–	–	# of Responders ([2]; historical morphine data, N 27, animals with writhes ≤ upper 95% confidence limit for morphine): 15; Mean (writhes) ([2]; historical morphine data, contractions counted 0-20 min after IP 0.5% acetic acid, group table: SC 0.5 mg/kg): 21.33; % Reduction in Writhing ([2]; historical morphine data, group table: SC 0.5 mg/kg): 57%; Responding Fraction ([2]; historical morphine data, responding animals/N): 0.56
COCCOCCOCCOCCCNC(C)COc1c(C)cccc1C (stereo not drawn) [N-mPEG3-C3-Mexiletine, N-mPEG3-C3-mexiletine]	46.3%	29.8	2	0.40	–	2.05	4	188	8.98	–
